In patent US12404244B2, “Pan-KIT kinase inhibitor having quinoline structure and application thereof” (Tarapeutics Science Inc., priority 2018, dated 2025):
Like-named read-outs stand apart in the source and are kept apart here.

Tests used:
Format in all cases: cell-based
TEL-KIT/V559D-BaF3 = experiment: Proliferation of TEL-KIT/V559D-BaF3 cells (CCK-8); settings: Mus musculus, read-out: GI50 TEL-KIT/V559D-BaF3
Description: (§1) Compounds as provided herein were further evaluated for their inhibitory effects on proliferation of cancer cells by testing their effects on growth of cancer cells. In this example the following cells were used: primary mouse B cells BaF3 (purchased from ATCC), GIST-T1 cells of the human gastrointestinal stromal tumor cell line (expressing wild-type KIT gene) (purchased from Cosmo Bio Co., Ltd. (Japan)). The present lab further constructed and used the following: mouse Tel-Kit-BaF3 (stably expressing KIT wild-type kinase), mouse Tel-Kit/T670I-BaF3 (stably expressing KIT T670I mutant kinase), mouse Tel-Kit/V559A-BaF3 (stably expressing KIT V559A mutant kinase), mouse Tel-Kit/V559D-BaF3 (stably expressing KIT V559D mutant kinase), mouse Tel-Kit/V559G-BaF3 (stably expressing KIT V559G mutant kinase), mouse Tel-Kit/V560D-BaF3 (stably expressing KIT V560D mutant kinase), mouse Tel-Kit/L576P-BaF3 (stably expressing KIT L576P mutant kinase), mouse Tel-Kit/V654A-BaF3 (stably expressing KIT V654A mutant kinase), mouse Tel-Kit/V654A/V559D-BaF3 (stably expressing KIT V654A V559D mutant kinase), mouse Tel-Kit/T670E-BaF3 (stably expressing KIT T670E mutant kinase), mouse Tel-Kit/T670I/V559D-BaF3 (stably expressing KIT T670I V559D mutant kinase), mouse Tel-Kit/S709F-BaF3 (stably expressing KIT S709F mutant kinase), mouse Tel-Kit/D816E-BaF3 (stably expressing KIT D816E mutant kinase), mouse Tel-Kit/D816H-BaF3 (stably expressing KIT D816H mutant kinase), mouse Tel-Kit/D820E-BaF3 (stably expressing KIT D820E mutant kinase), mouse Tel-Kit/D820G-BaF3 (stably expressing KIT D820G mutant kinase), mouse Tel-Kit/D820Y-BaF3 (stably expressing KIT D820Y mutant kinase), mouse Tel-Kit/N822K-BaF3 (stably expressing KIT N822K mutant kinase), mouse Tel-Kit/Y823D-BaF3 (stably expressing KIT Y823D mutant kinase), mouse Tel-Kit/A829P-BaF3 (stably expressing KIT A829P mutant kinase), GIST-T1-T670I cells of the human gastrointestinal stromal tumor cell line (expressing KIT-T670I mutant gene). The above cell lines were constructed by: amplifying respectively the sequences of human KIT and various mutant kinase regions of KIT via PCR, inserting the fragments respectively into MSCV-Puro vectors having a N-terminal TEL fragment and/or a NPM fragment and/or a TPR fragment (purchased from Clontech), transfecting mouse BaF3 cells with the vectors by means of retrovirus to obtain stably transfected cells, removing the growth factor IL-3, and thereby eventually obtaining cell lines that depend on the transferred protein KIT or various mutants of KIT. […]

TEL-KIT/V560D-BaF3 = experiment: Proliferation of TEL-KIT/V560D-BaF3 cells (CCK-8); settings: Mus musculus, read-out: GI50 TEL-KIT/V560D-BaF3
Description: as §1

TEL-KIT/T670E-BaF3 = experiment: Proliferation of TEL-KIT/T670E-BaF3 cells (CCK-8); settings: Mus musculus, read-out: GI50 TEL-KIT/T670E-BaF3
Description: as §1

TEL-KIT/T670I/V559D-BaF3 = experiment: Proliferation of TEL-KIT/T670I/V559D-BaF3 cells (CCK-8); settings: Mus musculus, read-out: GI50 TEL-KIT/T670I/V559D-BaF3
Description: as §1

TEL-KIT/D816H-BaF3 = experiment: Proliferation of TEL-KIT/D816H-BaF3 cells (CCK-8); settings: Mus musculus, read-out: GI50 TEL-KIT/D816H-BaF3
Description: as §1

TEL-KIT/D820Y-BaF3 = experiment: Proliferation of TEL-KIT/D820Y-BaF3 cells (CCK-8); settings: Mus musculus, read-out: GI50 TEL-KIT/D820Y-BaF3
Description: as §1

TEL-KIT/Y823D-BaF3 = experiment: Proliferation of TEL-KIT/Y823D-BaF3 cells (CCK-8); settings: Mus musculus, read-out: GI50 TEL-KIT/Y823D-BaF3
Description: as §1

GI50 (TEL-KIT/V559D-BaF3; 72 hours, CCK-8)	GI50 (TEL-KIT/V560D-BaF3; 72 hours, CCK-8)	GI50 (TEL-KIT/T670E-BaF3; 72 hours, CCK-8)	GI50 (TEL-KIT/T670I/V559D-BaF3; 72 hours, CCK-8)	GI50 (TEL-KIT/D816H-BaF3; 72 hours, CCK-8)	GI50 (TEL-KIT/D820Y-BaF3; 72 hours, CCK-8)	GI50 (TEL-KIT/Y823D-BaF3; 72 hours, CCK-8)	Structure (SMILES)	GI50 (TEL-KIT/V559D-BaF3; 72 h)	GI50 (TEL-KIT/V560D-BaF3; 72 h)	GI50 (TEL-KIT/T670E-BaF3; 72 h)	GI50 (TEL-KIT/T670I/V559D-BaF3; 72 h)	GI50 (TEL-KIT/D816H-BaF3; 72 h)	GI50 (TEL-KIT/D820Y-BaF3; 72 h)	GI50 (TEL-KIT/Y823D-BaF3; 72 h)
6 nM	4 nM	71 nM	45 nM	97 nM	3 nM	35 nM	COc1cc2nccc(Oc3ccc(NC(=O)Cc4ccc(Cl)c(C(F)(F)F)c4)cc3)c2cc1OC [Example 2, N-(4-((6,7-dimethoxyquinolin-4-yl)oxy)phenyl)-2-(4-chloro-3-(trifluoromethyl)phenyl)-acetamide]							
							COc1cc2nccc(Oc3ccc(NC(=O)Cc4ccc(C)c(C(F)(F)F)c4)cc3)c2cc1OC [Example 1, N-(4-((6,7-dimethoxyquinolin-4-yl)oxy)phenyl)-2-(4-methyl-3-(trifluoromethyl)phenyl)acetamide]	4 nM	5 nM	53 nM	48 nM	58 nM	6 nM	15 nM
1 nM	35 nM	89 nM	12 nM	315 nM	172 nM	704 nM	CCN(CC)CCNC(=O)c1c(C)[nH]c(/C=C2\C(=O)Nc3ccc(F)cc32)c1C [Sunitinib, reference compound]							
